# According to patent publication US20220095609A1, “FREEZING OF BIOLOGICAL MATERIAL” (SCI-GROUP AS, priority 2018, published 2022):
# Tests used:
# cells = assay: MTS bioassay, viability after freezing and thawing; format: cell-based
# Excerpt: […] the presence of a combined magnetic (0.2-0.3 T)-pulsing electric fields (20V (220V/m)-20kHZ), in the presence or absence of DMSO (0-5%) measured as the fraction of cells retaining their full proliferative capacity after freezing, monitored with a rapid bioassay-MTS-as an alternative to conventional plating efficiency testing.
# The experiment included the standard method used by most researchers, i.e. freezing with 5% DMSO in a “Nalgene Mr Frosty” apparatus (Merck KgaA, Germany), operated with a 15 minutes phase-transition time corresponding to the state of the art freezing rate of 1 degree per minute.
# The cells were grown to 70% confluence in 162 cm^2 flasks as monolayer cultures in Ham's F12 medium supplemented with 10% fetal calf serum (FBS). The cells were kept in continuous exponential growth by re-culturing twice per week. Harvest for re-culturing or for freezing was done by removing the growth medium, rinsing two times in 1.5 ml trypsin EDTA solution (0.05% and 0.02% respectively), and incubating cultures for 5 min at 37° C. in the residual trypsin solution. The trypsinization was stopped by adding Ham's F12 medium with FBS.
# (§1) Cells were resuspended and counted using Countess Automated Cell counter with Trypan Blue Stain (0.4%) to estimate the cell viability.
# The cell suspension was transferred to 15 ml tube and centrifuged (200xg, 5 min, 4° C.). The supernatant was removed and the cell pellets were resuspended in cold FBS to give a final concentration of 2×10^6 cells/ml. 0.5 ml of the cell suspension was transferred to 2 ml cryo-tube. Equal volume (0.5 ml) freezing medium with or without DMSO-medium was added to each cryotube to give a final 5% concentration of DMSO and 1×10^6 cells per ml in each tube.
# After 15 days in liquid nitrogen samples were thawed and cells seeded for MTS assay as follows: • cells were transferred to 15 ml tubes containing 4 ml culture media (total volume of 4+1=5 ml) and centrifuged at 200×g, 10 min, 4° C. • cells were resuspended in 1 ml media with 1% FBS and further diluted 10 times to give a concentration of 1×10^5/ml based on the initial counting before freezing. • After dilution, 0.2 ml of cells from each freezing condition was seeded in 96 well plates and the plates were incubated at 37° C. until the next day. • After the overnight incubation, media was removed and 0.1 ml of a fresh 1% FBS media was added. 20 μl of MTS reagent was added. • Finally, OD490 values were read after 1-4 hours incubation. The number of viable cells/well were calculated based on a standard curve generated using ongoing cell cultures. The calculation was performed in GraphPad Prism 8, using four parameter nonlinear logistic regression and the curve fitting function.
# T98G glioblastoma cells = assay: Colony formation (plating efficiency) after freezing and thawing, T98G; format: cell-based, human; details: Standard freezing with 5% DMSO (30 min -20° C., 45 min ~-80° C., liquid N2); T-98G
# Excerpt: (§2) The objective was to test the importance of the duration of ice-formation time (=time to remove latent heat during ice formation) of seed stocks of two established human cells lines: T-47D breast cancer cells and T98G glioblastoma cells, for viability after thawing. In addition to variation in ice-forming time two variables have been tested: • Cells frozen without DMSO or with 5% DMSO • Cells frozen within a mixed strong magnetic (0.2-0.3 T)-pulsing electric (20V (220V/m)-20kHZ) field (hereinafter termed “Strong MAG/PEF”), or just outside the Field Box in a weak magnetic (0,005-0,008T)-pulsing electric (7-16V (75-185V/m)-20 kHz) (hereinafter “Weak MAG/PEF) field.
# (§3) The cells of both types were grown as monolayer cultures in RPMI 1640 medium (Gibco, Rockwill, Md., USA) supplemented with 10% fetal calf serum (Gibco), 2 mM L-glutamine, 200 units/I insulin and 1% penicillin/streptomycin (Gibco). […]
# (§4) For each cell type separate preparation of samples for freezing was performed by standard trypsin treatment of several flasks and pooling of the cells after removal of the trypsin solution and re-suspending of the cells in RPMI-medium. After pooling the cell numbers per ml were accurately counted on a flow cytometer and thereafter dilutions of cell suspensions suitable to obtain the concentration of cells desired for transfer to the cryo-tubes were made for each cell type. […]
# [1] = test system: adherent CHO cells (chinese hamster ovary cells K1); assay: Colony formation (plating efficiency) after freezing and thawing, adherent CHO cells; format: cell-based
# Excerpt: The objective was to test the importance of the duration of ice-formation (=time to remove latent heat during ice formation) of seed stocks of adherent CHO cells (chinese hamster ovary cells K1 for viability after thawing. In addition to variation in ice-forming time two variables have been tested: • Cells frozen without DMSO or with 5% DMSO • Cells frozen within a mixed strong magnetic (0,2-0,3T)-pulsing electric (20V (220V/m)-20kHZ) field (hereinafter termed “Strong MAG/PEF”), or just outside the Field Box in a weak magnetic (0,005-0,008T)-pulsing electric (7-16V (75-185V/m)-20 kHz) (hereinafter “Weak MAG/PEF) field.
# The cells were grown in 162 cm^2 flasks as monolayer cultures in Ham's F12 medium supplemented with 10% fetal calf serum. The cells were kept in continuous exponential growth by re-culturing twice per week. Harvest for re-culturing or for freezing was done by removing the growth medium, rinsing two times in 1.5 ml trypsin EDTA solution (0.05% and 0.02% respectively), and incubating cultures for 5 min at 37° C. in the residual trypsin solution. The trypsinization was stopped by adding Ham's F12 medium with FBS.
# as §1
# The cell suspension was transferred to 15 ml tube and centrifuged (200 g, 5 min, 4° C.). The supernatant was removed and the cell pellets were resuspended in cold FBS to give a final concentration of 2×10^6 cells/ml. 0.5 ml of the cell suspension was transferred to 2 ml cryo-tube. Equal volume (0.5 ml) freezing medium with or without DMSO-medium was added to each cryotube to give a final 5% concentration of DMSO and 1×10^6 cells per ml in each tube.
# After 10 days in liquid nitrogen samples were thawed and cells seeded for colony formation. There were 3 parallel flasks for each sample tested. The control was the traditional procedure used in the laboratory with 5% DMSO and with 30 min in −20° C., 45 min in ˜−80° C. and final storage in liquid N2.
# The flasks were incubated for colony formation in a Steri-cult 200 incubator operated at 37° C. and with 5% CO2 in the atmosphere. Incubation continued for six days. For counting of macroscopic colonies cells were fixed in ethanol and stained with methylene blue.
# [2] = test system: T-47D breast cancer cells; assay: Colony formation (plating efficiency) after freezing and thawing, T-47D; format: cell-based, human; details: Standard freezing with 5% DMSO (30 min -20° C., 45 min ~-80° C., liquid N2)
# Excerpt: as §2, §3, §4
smiles,measurement,setting,value
"C[S+](C)[O-] [DMSO, Dimethyl sulfoxide]",difference in viability between 2 min and 3 min (optimal point) phase-transition time,cells; 1% DMSO,13%
same,difference in viability between 3 min and 4 min phase-transition time,cells; 1% DMSO,39%
same,percentage viability after freezing and thawing,"cells; 1% DMSO, phase-transition time 1.4 min, magnetic 0.2-0.3 T, pulsing electric field",8%
same,percentage viability after freezing and thawing,"cells; 1% DMSO, phase-transition time 1.8 min, magnetic 0.2-0.3 T, pulsing electric field",26%
same,percentage viability after freezing and thawing,"cells; 1% DMSO, phase-transition time 2 min, magnetic 0.2-0.3 T, pulsing electric field",36%
same,percentage viability after freezing and thawing,"cells; 1% DMSO, phase-transition time 2.2 min, magnetic 0.2-0.3 T, pulsing electric field",35%
same,percentage viability after freezing and thawing,"cells; 1% DMSO, phase-transition time 2.4 min, magnetic 0.2-0.3 T, pulsing electric field",41%
same,percentage viability after freezing and thawing,"cells; 1% DMSO, phase-transition time 2.6 min, magnetic 0.2-0.3 T, pulsing electric field",45%
same,percentage viability after freezing and thawing,"cells; 1% DMSO, phase-transition time 2.7 min, magnetic 0.2-0.3 T, pulsing electric field",47%
same,percentage viability after freezing and thawing,"cells; 1% DMSO, phase-transition time 3 min, magnetic 0.2-0.3 T, pulsing electric field",47%
same,percentage viability after freezing and thawing,"cells; 1% DMSO, phase-transition time 4 min, magnetic 0.2-0.3 T, pulsing electric field",4%
same,percentage viability after freezing and thawing,"cells; 1% DMSO, phase-transition time 5.5 min, magnetic 0.2-0.3 T, pulsing electric field",4%
same,percentage viability after freezing and thawing,"cells; 2% DMSO, phase-transition time 1.4 min, magnetic 0.2-0.3 T, pulsing electric field",36%
same,percentage viability after freezing and thawing,"cells; 2% DMSO, phase-transition time 1.8 min, magnetic 0.2-0.3 T, pulsing electric field",57%
same,percentage viability after freezing and thawing,"cells; 2% DMSO, phase-transition time 2 min, magnetic 0.2-0.3 T, pulsing electric field",53%
same,percentage viability after freezing and thawing,"cells; 2% DMSO, phase-transition time 2.2 min, magnetic 0.2-0.3 T, pulsing electric field",61%
same,percentage viability after freezing and thawing,"cells; 2% DMSO, phase-transition time 2.4 min, magnetic 0.2-0.3 T, pulsing electric field",52%
same,percentage viability after freezing and thawing,"cells; 2% DMSO, phase-transition time 2.6 min, magnetic 0.2-0.3 T, pulsing electric field",63%
same,percentage viability after freezing and thawing,"cells; 2% DMSO, phase-transition time 2.7 min, magnetic 0.2-0.3 T, pulsing electric field",65%
same,percentage viability after freezing and thawing,"cells; 2% DMSO, phase-transition time 3 min, magnetic 0.2-0.3 T, pulsing electric field",66%
same,percentage viability after freezing and thawing,"cells; 2% DMSO, phase-transition time 4 min, magnetic 0.2-0.3 T, pulsing electric field",27%
same,percentage viability after freezing and thawing,"cells; 2% DMSO, phase-transition time 5.5 min, magnetic 0.2-0.3 T, pulsing electric field",17%
same,percentage viability after freezing and thawing,"cells; 5% DMSO, phase-transition time 1.8 min, magnetic 0.2-0.3 T, pulsing electric field",76%
same,percentage viability after freezing and thawing,"cells; 5% DMSO, phase-transition time 2.2 min, magnetic 0.2-0.3 T, pulsing electric field",74%
same,percentage viability after freezing and thawing,"cells; 5% DMSO, phase-transition time 2.4 min, magnetic 0.2-0.3 T, pulsing electric field",90%
same,percentage viability after freezing and thawing,"cells; 5% DMSO, phase-transition time 2.6 min, magnetic 0.2-0.3 T, pulsing electric field",98%
same,percentage viability after freezing and thawing,"cells; 5% DMSO, phase-transition time 2.7 min, magnetic 0.2-0.3 T, pulsing electric field",97%
same,percentage viability after freezing and thawing,"cells; 5% DMSO, phase-transition time 3 min, magnetic 0.2-0.3 T, pulsing electric field",97%
same,percentage viability after freezing and thawing,"cells; 5% DMSO, phase-transition time 4 min, magnetic 0.2-0.3 T, pulsing electric field",99%
same,percentage viability after freezing and thawing,"cells; 5% DMSO, phase-transition time 5.5 min, magnetic 0.2-0.3 T, pulsing electric field",99%
same,percentage viability after freezing and thawing,"cells; 5% DMSO, phase-transition time 15 min, standard method, Nalgene Mr Frosty, 1 degree per minute",68%
same,Plating efficiency—PE (%),T98G glioblastoma cells,57%
same,PE: plating efficiency (%),"[1]; 5% DMSO, ice formation time 1 min 55 sec, Strong MAG/PEF",88%
same,PE: plating efficiency (%),"[1]; 5% DMSO, ice formation time 1 min 55 sec, Weak MAG/PEF",98%
same,PE: plating efficiency (%),"[1]; 5% DMSO, ice formation time 4 min 8 sec, Weak MAG/PEF",95%
same,PE: plating efficiency (%),"[1]; 5% DMSO, ice formation time 5 min 7 sec, Strong MAG/PEF",72%
same,PE: plating efficiency (%),"[1]; 5% DMSO, ice formation time 5 min 7 sec, Weak MAG/PEF",64%
same,PE: plating efficiency (%),[1]; 4 min,107 (artefacted) %
same,Plating efficiency—PE (%),[2],80-90%
